Assay results published in patent US12673947B2 (Cytosinlab Therapeutics Co., Ltd., priority 2020, dated 2026).

Tests used:
[1] = test system: MV4;11 cells; experiment: MV4;11 in vitro inhibition of proliferation assay (CellTiter-Glo, 72 hours); format: cell-based; settings: Homo sapiens, MV4-11, 72 h, IC50 class, read-out: Inhibitory activity of cell proliferation MV4;11
Text: Biological Test Example 2: MV4;11 In Vitro Inhibition of Proliferation Assay
The MV4;11 cell lines were purchased from the cell bank of the Chinese Academy of Sciences, IMDM medium (Gibco, catalog number 12440), fetal bovine serum (Gibco, catalog number 10099141C), penicillin-streptomycin antibiotics (Gibco, catalog number 15140122), DMSO (Sigma, catalog number D2650), Celltiter-Glo kit (CTG) (Promega, catalog number G7573), 384-well clear flat-bottom black cell culture plate (Corning, catalog number 3764), D300e digital dispenser (Tecan, catalog number D300e), SpectraMax i3x microplate reader (MOLECULAR DEVICES, catalog number i3x)
MV4;11 cell was cultivated in IMDM, 10% fetal bovine serum, 1% penicillin-streptomycin antibiotics, and cell density was kept less than 1.0*10E6 cells per ml to ensure that it was always in logarithmic growth phase. Cell viability was greater than 95%.
The compounds to be tested was diluted by 3 times from 10 uM with DMSO to 9 concentrations. 60 nl diluted compound was added to the cell culture plate and three duplicates were set up.
The prepared MV4;11 cell suspension was added to the 384-well plate, and 20 microliters of cell suspension was added per well, i.e., each well contained 2000 MV4;11 cells, of which the final concentration of DMSO was 0.3%. The cell culture plate was placed in 37° C. and incubated in a 5% carbon dioxide incubator for 72 hours.
20 μL of Promega CellTiter-Glo reagent was added to per well, and the plate was incubated at room temperature for 10 minutes when the luminescence signals were stable. SpectraMax i3x microplate reader was used to read signals.
The original data was converted into inhibition rate, and the IC50 value (half inhibition concentration) of the compound was determined by fitting the nonlinear four-parameter curve.

[2] = target: T1, FLT3 (Homo sapiens, UniProt P36888); experiment: FLT3 kinase in vitro inhibitory activity experiment (Caliper mobility shift, conversion rate); format: biochemical; settings: IC50 class, read-out: Enzyme activity FLT3
T1 construct: purchased Carna 08-145
T1 sequence (P36888 27-993): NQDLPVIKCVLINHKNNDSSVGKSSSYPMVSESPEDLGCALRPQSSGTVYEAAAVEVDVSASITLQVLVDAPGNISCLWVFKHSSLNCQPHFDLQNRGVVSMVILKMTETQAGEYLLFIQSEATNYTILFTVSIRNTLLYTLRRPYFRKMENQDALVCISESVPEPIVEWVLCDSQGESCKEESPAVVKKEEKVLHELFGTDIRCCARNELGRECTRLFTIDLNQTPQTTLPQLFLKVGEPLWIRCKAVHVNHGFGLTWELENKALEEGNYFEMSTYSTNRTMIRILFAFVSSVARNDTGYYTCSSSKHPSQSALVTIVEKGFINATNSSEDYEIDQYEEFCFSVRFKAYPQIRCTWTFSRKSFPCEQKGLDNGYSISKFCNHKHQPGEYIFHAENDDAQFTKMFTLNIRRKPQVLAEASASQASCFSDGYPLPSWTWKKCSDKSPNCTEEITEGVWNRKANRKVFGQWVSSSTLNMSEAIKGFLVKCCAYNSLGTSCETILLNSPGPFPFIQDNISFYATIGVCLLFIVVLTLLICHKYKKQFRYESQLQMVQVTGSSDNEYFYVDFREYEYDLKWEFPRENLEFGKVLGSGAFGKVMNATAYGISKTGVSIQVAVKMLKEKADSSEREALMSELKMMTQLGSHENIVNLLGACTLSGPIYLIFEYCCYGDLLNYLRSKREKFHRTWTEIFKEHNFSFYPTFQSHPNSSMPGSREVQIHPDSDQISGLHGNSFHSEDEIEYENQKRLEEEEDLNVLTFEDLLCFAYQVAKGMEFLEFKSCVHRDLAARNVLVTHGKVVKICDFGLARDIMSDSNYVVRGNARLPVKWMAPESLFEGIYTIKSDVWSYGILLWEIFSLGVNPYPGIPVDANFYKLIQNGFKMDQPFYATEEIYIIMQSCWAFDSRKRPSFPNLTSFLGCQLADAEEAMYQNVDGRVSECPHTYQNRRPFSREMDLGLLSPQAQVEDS
Experimental: Biological Test Example 1: FLT3 Kinase In Vitro Inhibitory Activity Experiment
Centrifuge (manufacturer: Eppendorf, model: 5430), microplate reader (manufacturer: Perkin Elmer, model: Caliper EZ Reader II), Echo 550 (manufacturer: Labcyte, model: Echo 550)
1. Kinase Reaction Process
• (1) 1×Kinase buffer was prepared. • (2) Preparation of the serial compound dilutions: the initial stock (the concentration of the tested compound was 1 μM) was diluted by 3-fold into 10 concentrations, and was single-well detected. The compounds were series diluted to solutions of 10 different concentration (100-folds final concentration) in 384-well plates. 250 nl of solution was transferred to each well of 384-well plate by Echo550. 100% DMSO (250 nl) was added to negative control wells and positive control wells respectively. • (3) Kinase solution (2.5 times final concentration) was prepared with 1×Kinase buffer. • (4) 10 μL of kinase solution (2.5 times final concentration) was added to compound wells and positive control wells respectively: 1×Kinase buffer (10 μL) was added to the negative control wells. • (5) The solution was centrifuged at 1000 rpm for 30 seconds, shaked and mixed, and incubated at room temperature for 10 minutes. • (6) The mixed solution of ATP and Kinase substrate 2 (25/15 times final concentration) was prepared with 1×Kinase buffer. • (7) 15 μL of mixed solution ATP and Kinase substrate 2 (25/15 times final concentration) was added to initiated the reaction. • (8) 384 well plate was centrifuged at 1000 rpm for 30 seconds, shaked and mixed, then incubated at room temperature for 30 minutes. • (9) Stop solution (30 μL) was added to stop kinase reaction, and the solution was centrifuged at 1000 rpm for 30 seconds, shaked and mixed. • (10) The conversion rate was read with Caliper EZ Reader II. 2. Data Analysis Formula for Calculation
Wherein: Conversion %_sample is the reading of the sample conversion; Conversion %_min: negative control well.

SMILES | IC50 [1] [nM] | IC50 [2] [nM]
CCc1nc2c(N)ncc(-c3cnn(CC4CCN(C5CCN(C)CC5)CC4)c3)c2nc1NC1CCOCC1 [Compound 155] | 10 to 100 | ≤ 10
CCc1nc2c(N)ncc(-c3cnn(C4CCN(CCO)CC4)c3)c2nc1NC1CCOCC1 [Compound 156] | 10 to 100 | ≤ 10
CCc1nc2c(N)ncc(-c3cnn(C4CCN(CC5CCNCC5)CC4)c3)c2nc1NC1CCOCC1 [Compound 157] | 10 to 100 | ≤ 10
CCc1nc2c(N)ncc(-c3cnn(C4CCN(CC5CCN(C)CC5)CC4)c3)c2nc1NC1CCOCC1 [Compound 158] | 10 to 100 | ≤ 10
CCc1nc2c(N)ncc(-c3cnn(C4CCN(C5CCNCC5)CC4)c3)c2nc1NC1CCOCC1 [Compound 160] | 10 to 100 | ≤ 10
CCc1nc2c(N)ncc(-c3cnn(C4C[C@H]5CC[C@@H](C4)N5C(C)C)c3)c2nc1N[C@@H]1CC[C@H](O)C1 (some centres unmarked) [Compound 166] | ≤ 10 | ≤ 10
CCc1nc2c(N)ncc(-c3cnn(C4C[C@H]5CC[C@@H](C4)N5CC(C)C)c3)c2nc1N[C@@H]1CC[C@H](O)C1 (some centres unmarked) [Compound 167] | ≤ 10 | ≤ 10
CCc1nc2c(N)ncc(-c3cnn(C4C[C@H]5CC[C@@H](C4)N5S(C)(=O)=O)c3)c2nc1N[C@@H]1CC[C@H](O)C1 (some centres unmarked) [Compound 168] | ≤ 10 | ≤ 10
CCc1nc2c(N)ncc(-c3cnn(C4CC(C)(C)N(C)C(C)(C)C4)c3)c2nc1N[C@@H]1CC[C@H](O)C1 [Compound 169, (1S,3R)-3-((5-amino-3-ethyl-8-(1-(1,2,2,6,6-pentamethylpiperidine-4-yl)-1H-pyrazol-4-yl)pyridino[3,4-b]pyrazine-2-yl)amino)cyclopentan-1-ol] | ≤ 10 | ≤ 10
CCc1nc2c(N)ncc(-c3cnn(C4CCN(c5cccnc5)CC4)c3)c2nc1N[C@@H]1CC[C@H](O)C1 [Compound 170] | ≤ 10 | ≤ 10
CCc1nc2c(N)ncc(-c3cnn(C4CCN(c5ccnc(C)c5)CC4)c3)c2nc1N[C@@H]1CC[C@H](O)C1 [Compound 171] | ≤ 10 | ≤ 10
CCc1nc2c(N)ncc(-c3cnn(C4CCN(c5ccncn5)CC4)c3)c2nc1N[C@@H]1CC[C@H](O)C1 [Compound 172] | ≤ 10 | ≤ 10
CCc1nc2c(N)ncc(-c3cnn(C4CCN(c5ccnc(C)n5)CC4)c3)c2nc1N[C@@H]1CC[C@H](O)C1 [Compound 174] | ≤ 10 | ≤ 10
CCc1nc2c(N)ncc(-c3cnn(C4CCN(c5cccnn5)CC4)c3)c2nc1N[C@@H]1CC[C@H](O)C1 [Compound 175] | ≤ 10 | ≤ 10
CCc1nc2c(N)ncc(-c3cnn(-c4ccccc4)c3)c2nc1N[C@@H]1CC[C@H](O)C1 [Compound 176] | 10 to 100 | ≤ 10
CCc1nc2c(N)ncc(-c3cnn(-c4ccc(C)nc4)c3)c2nc1N[C@@H]1CC[C@H](O)C1 [Compound 177, (1S,3R)-3-((5-amino-3-ethyl-8-(1-(6-methylpyridin-3-yl)-1H-pyrazol-4-yl)pyridino[3,4-b]pyrazin-2-yl)amino)cyclopentan-1-ol] | ≤ 10 | ≤ 10
